In US20240254093A1, “GPR35 Agonist Compounds” (Heptares Therapeutics Limited, priority 2021, published 2024):

Key:
GPR35 = GPR35 (Homo sapiens (Human), UniProt Q9HC97); assay: Label-free DMR functional assay in HT-29 cells; type: cell-based; conditions: HT-29 cell line endogenously expressing human GPR35; DMR normalised to Lodoxamide
Protocol: HT-29 cells (ATCC HTB-38) kept in continuous culture in McCoys (Thermo 16600082) supplemented with 10% FBS. Day prior to assay, cells harvested with TrypLE (Gibco12604-013), and plated at 20 k/well in culture media in a total volume of 50 ul in Corning EPIC 384 well plates (5040) overnight 37° C. 5% CO2. On the day of assay, cell media was removed and replaced with assay buffer (HBSS+20 mM HEPES pH7.4) and reincubated for 1 h. Compounds were prepared in 100% DMSO in ECHO LDV 384 source plates. Cell plates were read on an EPIC plate reader at room temperature for 15 mins, read paused, and cell plate added to LabCyte ECHO 550 for addition of 50 nl per well compound by acoustic transfer. Plates were immediately placed back into the EPIC reader, read unpaused and Dynamic Mass Redistribution measured for 60 minutes. Raw data was analysed by EPIC Analyser software and max peak taken per concentration to enable EC50 determination. All raw DMR data was normalised to Lodoxamide and buffer corrected.
(§1) • Ki values derived from concentration response analysis in HEKf cell membranes overexpressing GPR35a isoform. EC50 values derived from concentration response analysis in HT-29 cell line endogenously expressing human GPR35.

Human GPR35a isoform = Human GPR35a isoform (Homo sapiens (Human), UniProt Q9HC97); assay: Human GPR35a isoform binding (radioligand, HEK293f membranes); conditions: HEKf cell membranes overexpressing GPR35a isoform; read-out: Human GPR35 Ki
Protocol: Overexpression of Human GPR35a Baculovirus in HEK293f cells at a cell density of 2.5×10^6 cells/mL and a multiplicity of infection of 2.5 over 24 h in Pro293 (Lonza)+5% FBS, 1% Glutamax and 0.4% Pen/Strep. Cells harvested and centrifuged at 2500 RPM for 10 mins at 4° C. The supernatant was then poured off and the pellet stored at −80° C. The pellet was defrosted and re-suspended in 15 mL of homogenising buffer (20 mM HEPES, 10 mM EDTA, pH 7.4). Then homogenised in mechanical homogeniser (VMR) for 10 seconds. The membrane was centrifuged in centrifuge tubes at 40,000 g for 15 mins at 4° C. The supernatant was poured away and re-suspended in 15 mL of homogenising buffer. Homogenised for 20 seconds. The membrane was centrifuged at 40,000 g for 45 mins at 4° C. The membrane was re-suspended in 3 mL of storage buffer (20 mM HEPES, 0.1 mM EDTA, pH 7.4) mixing well. The resulting membranes were then stored at −80°. GPR35 cell membrane homogenates were re-suspended in the binding buffer (50 mM TRIS+10 mM MgCl2 pH 7.4) to a final assay concentration of 5 ug/well. Test compounds were diluted in dimethylsulphoxide (DMSO (Sigma Aldrich, UK)), to form a 10 point ½ log concentration curve. Test compounds were added per plate, followed by 7 nM 3H-27966. 0.1 uM FAC Lodoxamide was added in order to allow non-specific binding to be calculated. Finally, membrane was added to each well on the plate. After 60 min incubation at room temperature, membranes were filtered onto a unifilter, 96-well white microplate with bonded GF/B filter, pre-soaked in ddH20, with a TomTec cell harvester, and washed 5 times with distilled water. Plates were dried prior to 50 ul/well scintillant added, sealed and radioactivity measured using a MicroBeta analyser. IC50 values were derived from the inhibition curve and affinity constant (Ki) values were calculated using the Cheng-Prussoff equation, where; pKi=−log 10 Ki.
as §1

Sequence of GPR35 (Q9HC97 whole entry): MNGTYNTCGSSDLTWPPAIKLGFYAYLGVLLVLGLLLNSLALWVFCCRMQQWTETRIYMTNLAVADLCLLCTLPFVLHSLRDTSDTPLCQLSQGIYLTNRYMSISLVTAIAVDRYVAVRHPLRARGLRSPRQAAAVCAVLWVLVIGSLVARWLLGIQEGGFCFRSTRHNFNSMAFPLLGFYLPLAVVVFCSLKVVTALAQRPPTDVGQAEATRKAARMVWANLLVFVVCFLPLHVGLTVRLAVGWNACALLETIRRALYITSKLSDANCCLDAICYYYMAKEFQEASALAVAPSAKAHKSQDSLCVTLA
Sequence of Human GPR35a isoform (Q9HC97 whole entry, canonical isoform): as the sequence (Q9HC97 whole entry) above

Structure (SMILES) | EC50 (GPR35) [nM] | Ki (Human GPR35a isoform) [nM]
O=c1c(O)c(Nc2cc(-c3ccc(OCCOc4ccc(C(F)(F)F)cc4)nc3)cc(-c3nn[nH]n3)c2)c1=O [Example 27, 3-((3-(1H-tetrazol-5-yl)-5-(6-(2-(4-(trifluoromethyl)phenoxy)ethoxy)pyridin-3-yl)phenyl)amino)-4-hydroxycyclobut-3-ene-1,2-dione] | 0.54 | 0.75
CCc1cc(Nc2c(O)c(=O)c2=O)cc(-c2nn[nH]n2)c1 [Example 10, 3-((3-ethyl-5-(1H-tetrazol-5-yl)phenyl)amino)-4-hydroxycyclobut-3-ene-1,2-dione] | 2.34 | 2.75
O=C(NCc1ccc(C(F)(F)F)cc1)c1ccc(-c2cc(Nc3c(O)c(=O)c3=O)cc(-c3nn[nH]n3)c2)cc1 [Example 12, 3′-((2-hydroxy-3,4-dioxocyclobut-1-en-1-yl)amino)-5′-(1H-tetrazol-5-yl)-N-(4-(trifluoromethyl)benzyl)-[1,1′-biphenyl]-4-carboxamide] | 0.03 | 0.31
O=C(NCc1ccccc1)c1cccc(-c2cc(Nc3c(O)c(=O)c3=O)cc(-c3nn[nH]n3)c2)c1 [Example 6, N-benzyl-3′-((2-hydroxy-3,4-dioxocyclobut-1-en-1-yl)amino)-5′-(1H-tetrazol-5-yl)-[1,1′-biphenyl]-3-carboxamide] | 0.62 | 1.82
O=c1c(O)c(Nc2cc(-c3ccnnc3)cc(-c3nn[nH]n3)c2)c1=O [Example 29, 3-hydroxy-4-((3-(pyridazin-4-yl)-5-(1H-tetrazol-5-yl)phenyl)amino)cyclobut-3-ene-1,2-dione] | 1.05 | 0.74
NC(=O)c1ccc(CNC(=O)c2ccc(-c3cc(Nc4c(O)c(=O)c4=O)cc(-c4nn[nH]n4)c3)cc2)cc1 [Example 31, N-(4-carbamoylbenzyl)-3′-((2-hydroxy-3,4-dioxocyclobut-1-en-1-yl)amino)-5′-(1H-tetrazol-5-yl)-[1,1′-biphenyl]-4-carboxamide] | 11.3 | 1.61
O=c1c(O)c(Nc2ccc(F)c(-c3nn[nH]n3)c2)c1=O [Example 13, 3-((4-fluoro-3-(1H-tetrazol-5-yl)phenyl)amino)-4-hydroxycyclobut-3-ene-1,2-dione] | 2.39 | 0.99
O=c1c(O)c(Nc2cc(-c3ccccc3)cc(-c3nn[nH]n3)c2)c1=O [Example 3, 3-((5-(1H-tetrazol-5-yl)-[1,1′-biphenyl]-3-yl)amino)-4-hydroxycyclobut-3-ene-1,2-dione] | 2.27 | 
COCCOc1ccc(CNC(=O)c2ccc(-c3cc(Nc4c(O)c(=O)c4=O)cc(-c4nn[nH]n4)c3)cc2)cc1 [Example 8, 3′-((2-hydroxy-3,4-dioxocyclobut-1-en-1-yl)amino)-N-(4-(2-methoxyethoxy)benzyl)-5′-(1H-tetrazol-5-yl)-[1,1′-biphenyl]-4-carboxamide] | 0.66 | 1.47
O=c1c(O)c(Nc2cc(-c3ccc(OCCOc4cc(C(F)(F)F)cc(C(F)(F)F)c4)nc3)cc(-c3nn[nH]n3)c2)c1=O [Example 26, 3-((3-(6-(2-(3,5-bis(trifluoromethyl)phenoxy)ethoxy)pyridin-3-yl)-5-(1H-tetrazol-5-yl)phenyl)amino)-4-hydroxycyclobut-3-ene-1,2-dione] | 1.04 | 0.36
O=c1c(O)c(Nc2cccc(-c3nn[nH]n3)c2)c1=O [Example 1, 3-((3-(1H-tetrazol-5-yl)phenyl)amino)-4-hydroxycyclobut-3-ene-1,2-dione] | 8.68 | 
CCOC(=O)c1cccc(-c2cc(Nc3c(O)c(=O)c3=O)cc(-c3nn[nH]n3)c2)c1 [Example 4, ethyl 3′-((2-hydroxy-3,4-dioxocyclobut-1-en-1-yl)amino)-5′-(1H-tetrazol-5-yl)-[1,1′-biphenyl]-3-carboxylate] | 2.5 | 3.83
O=c1c(O)c(Nc2cc(-c3ccc(OCc4ccc(C(F)(F)F)cc4)nc3)cc(-c3nn[nH]n3)c2)c1=O [Example 20, 3-((3-(1H-tetrazol-5-yl)-5-(6-((4-(trifluoromethyl)benzyl)oxy)pyridin-3-yl)phenyl)amino)-4-hydroxycyclobut-3-ene-1,2-dione] | 7.68 | 1.06
O=c1c(O)c(Nc2cc(-c3nn[nH]n3)cc(C3CC3)c2)c1=O [Example 24, 3-((3-cyclopropyl-5-(1H-tetrazol-5-yl)phenyl)amino)-4-hydroxycyclobut-3-ene-1,2-dione] | 8.19 | 15.2
CN(C)C(=O)c1ccc(-c2cc(Nc3c(O)c(=O)c3=O)cc(-c3nn[nH]n3)c2)cc1 [Example 30, 3′-((2-hydroxy-3,4-dioxocyclobut-1-en-1-yl)amino)-N,N-dimethyl-5′-(1H-tetrazol-5-yl)-[1,1′-biphenyl]-4-carboxamide] | 2.64 | 5.99
O=c1c(O)c(Nc2cc(-c3nn[nH]n3)cc(Oc3ccccc3)n2)c1=O [Example 22, 3-hydroxy-4-((6-phenoxy-4-(1H-tetrazol-5-yl)pyridin-2-yl)amino)cyclobut-3-ene-1,2-dione] | 1.39 | 3.66
O=c1c(O)c(Nc2cc(-c3nn[nH]n3)cc(-c3ccccc3)n2)c1=O [Example 18, 3-hydroxy-4-((6-phenyl-4-(1H-tetrazol-5-yl)pyridin-2-yl)amino)cyclobut-3-ene-1,2-dione] | 5.18 | 2.65
COc1cccc(-c2cc(Nc3c(O)c(=O)c3=O)cc(-c3nn[nH]n3)c2)c1 [Example 9, 3-hydroxy-4-((3′-methoxy-5-(1H-tetrazol-5-yl)-[1,1′-biphenyl]-3-yl)amino)cyclobut-3-ene-1,2-dione] | 0.83 | 0.46
O=c1c(O)c(Nc2cc(-c3ccc4nn(Cc5ccc(C(F)(F)F)cc5)cc4c3)cc(-c3nn[nH]n3)c2)c1=O [Example 19, 3-((3-(1H-tetrazol-5-yl)-5-(2-(4-(trifluoromethyl)benzyl)-2H-indazol-5-yl)phenyl)amino)-4-hydroxycyclobut-3-ene-1,2-dione] | 0.08 | 0.36
O=c1c(O)c(Nc2cc(-c3nn[nH]n3)cc(C(F)(F)F)c2)c1=O [Example 2, 3-((3-(1H-tetrazol-5-yl)-5-(trifluoromethyl)phenyl)amino)-4-hydroxycyclobut-3-ene-1,2-dione] | 0.9 | 0.48
O=C(O)c1cccc(-c2cc(Nc3c(O)c(=O)c3=O)cc(-c3nn[nH]n3)c2)c1 [Example 11, 3′-((2-hydroxy-3,4-dioxocyclobut-1-en-1-yl)amino)-5′-(1H-tetrazol-5-yl)-[1,1′-biphenyl]-3-carboxylic acid] | 4.31 | 6.24
O=c1c(O)c(Nc2cc(-c3ccc(OCc4ccccc4)nc3)cc(-c3nn[nH]n3)c2)c1=O [Example 16, 3-((3-(6-(benzyloxy)pyridin-3-yl)-5-(1H-tetrazol-5-yl)phenyl)amino)-4-hydroxycyclobut-3-ene-1,2-dione] | 0.27 | 0.06
O=c1c(O)c(Nc2cc(-c3ccc(C(F)(F)F)cc3)cc(-c3nn[nH]n3)c2)c1=O [Example 15, 3-((5-(1H-tetrazol-5-yl)-4′-(trifluoromethyl)-[1,1′-biphenyl]-3-yl)amino)-4-hydroxycyclobut-3-ene-1,2-dione] | 2.02 | 0.16
O=c1c(O)c(Nc2cc(-c3ccc4cn(CCOc5ccc(C(F)(F)F)cc5)nc4c3)cc(-c3nnn[nH]3)c2)c1=O [Example 23, 3-((3-(1H-tetrazol-5-yl)-5-(2-(2-(4-(trifluoromethyl)phenoxy)ethyl)-2H-indazol-6-yl)phenyl)amino)-4-hydroxycyclobut-3-ene-1,2-dione] | 0.12 | 0.46
